In PMC11548477, “Cathepsin B- and L-like Protease Activities Are Induced During Developmental Barley Leaf Senescence” (Plants, 2024):
Read-outs that look alike come from different tables or passages of the source. Where a SMILES comes first, the peptide text is derived from it. [ ]: non-standard residue; d: D form. The star is where a group is joined. Sta = CC(C)C[C@H](N)[C@@H](O)CC(=O)O; Isovaleryl = CC(C)CC(=O)*

How the values were obtained:
[1] = target: aminopeptidase B and cathepsin H-like activity (R-AMC cleavage) in crude protein extract from barley leaves; assay: R-AMC cleavage by crude protein extract from barley leaves; assay type: biochemical, Hordeum vulgare; settings: for IC50 / inhibition of R-AMC cleavage: week-3 leaf extract; for concentration up to which no activity on R-AMC cleavage was seen: week-3 leaf samples
[2] = test system: cathepsin B- and L-like activity (Z-FR-AMC cleavage) in crude protein extract from barley leaves; assay: Z-FR-AMC cleavage by crude protein extract from barley leaves; assay type: biochemical, Hordeum vulgare
Method: (§1) Frozen leaves were homogenized with a pre-chilled pestle and mortar in cold extraction buffer (0.1 M Tris–HCl, pH 7.4, 2 mM DTT) at a ratio of 167 mg of leaves:1 mL buffer. The homogenate was centrifugated at 20,000× g for 30 min at 4 °C. The supernatant, which was kept in an ice bath, was used as a sample for measurements of peptidase activity and protein content.
(§2) Fluorogenic substrates Z-FR-AMC to determine cathepsin B- and L-like activity, and Z-RR-AMC to determine cathepsin B-like activity, were used. These substrates show fluorescence when AMC is released as a consequence of the hydrolysis of the Arg-AMC bond. The emitted fluorescence was detected with a SpectraMax M2 microplate reader (Molecular Devices, San Jose, CA, USA) with λex = 360 nm and λem = 460 nm. Before use, the substrates were dissolved in DMSO at 10 mM and frozen at −20 °C. The measurements were made in 96-well black microplates (PerkinElmer Inc, Waltham, MA, USA), and each well contained a 100 μL final volume of an appropriate 0.1 M buffer with DTT (2 mM), extract (1.6 mg of fresh weight), and substrate (25 μM). The reaction was initiated by the addition of the substrate. The final concentration of DMSO in microplate wells was 1% in all the assays. The assays were conducted at room temperature, and relative fluorescence readings were recorded over a period of 10 min.
(§3) For the inhibition assays, an inhibitor (1 µL of stock solution in DMSO) at different concentrations was added to the reaction mixture. For all inhibitors tested, the concentration of inhibitor that caused 50% inhibition of the enzymatic reaction (IC50) was calculated by plotting % inhibition against the logarithm of inhibitor concentration (at least six points). The data are presented as the mean values of at least three independent experiments.

[3] = test system: cathepsin B-like activity (Z-RR-AMC cleavage) in crude protein extract from barley leaves; assay: Z-RR-AMC cleavage by crude protein extract from barley leaves; assay type: biochemical, Hordeum vulgare
Method: as §1, §2, §3

[4] = test system: aminopeptidase in barley extracts; set-up: method as in PMID 10681066, PMID 21787929; settings: cited from earlier work
[5] = test system: aminopeptidase in alfalfa extracts; set-up: method as in PMID 10681066, PMID 21787929; settings: cited from earlier work
[6] = test system: 38 kDa DCG-04-labeled cysteine protease band (cathepsin B-like protease(s)); assay: inhibition of DCG-04 binding (activity-based labeling), 38 kDa band; set-up: species or system Hordeum vulgare; settings: 2.5 μM DCG-04, pH 5.5, 3 h, week-4 leaf extract; for IC50: densitometric analysis of blots
Method: (§4) The protein extracts of barley leaves obtained 4 weeks after flowering were preincubated with different concentrations of the inhibitors and proteins were labeled with 2.5 μM DCG-04 at pH 5.5 for 3 h. DMSO (solvent for inhibitors) was used as a control.
(§5) Densitometric analysis was based on 2 blots (mean values ± S.D.); data were normalized to the control value (DMSO solvent without inhibitor). The chemical structures of the inhibitors and calculated values of iLogP are shown on the right side of the figure.
(§6) Protein extracts from barley leaves (67 mg of fresh weight) were incubated with 2.5 μM DCG-04 in 0.1 M citrate buffer, pH 5.5, containing 2 mM DTT. When cysteine protease inhibitors E-64 and CA-074 were used, extracts were preincubated with the inhibitors for 10 min before addition of DCG-04. […] After the incubation, reactions were stopped and proteins were precipitated with inclusion of 100 mM NaCl, along with 80% acetone for rapid precipitation. The pellets were mixed with Laemmli loading buffer and boiled for 5 min [63]. Proteins were then separated on ready-made ExpressPlus^TM 4–12% acrylamide gels (GenScript Inc., Piscataway, NJ, USA) in Tris-MOPS SDS-PAGE Running Buffer (GenScript). After SDS-PAGE, proteins were transblotted onto nitrocellulose membrane (BioTrace™ NT nitrocellulose transfer membrane, Cytiva Life Sciences, Marlborough, MA, USA) and blocked for 1 h in 5% non-fat milk in 20 mM Tris-buffered saline (150 mM NaCl), pH 7.4, containing 0.1% Tween-20 (TBST). The membranes were washed 3 × 10 min in TBST and then incubated with streptavidin-HRP (dilution 1:2000 in 1% non-fat milk in TBST) for 1 h and washed again 3 × 10 min in TBST. The membranes were developed using the SuperSignal™ West Pico PLUS Chemiluminescent Substrate (Thermo Scientific, Rockford, IL, USA) and images were obtained using GeneTools by Syngene on a GeneSys imaging platform (Syngene, Frederick, MD, USA). Luminescent signal intensity was calculated by raw volume using GeneTools analysis Version 4.0 software from Syngene.

[7] = test system: 43 kDa DCG-04-labeled cysteine protease band (cathepsin L-like protease or proteases); assay: inhibition of DCG-04 binding (activity-based labeling), 43 kDa band; set-up: species or system Hordeum vulgare; settings: 2.5 μM DCG-04, pH 5.5, 3 h, week-4 leaf extract; for IC50: densitometric analysis of blots
Method: as §4, §5, §6

[8] = test system: aleurain; set-up: method as in PMID 16669011; settings: 10 μM leupeptin; cited from earlier work
[9] = test system: caseinolytic protease activity of extract obtained from week-4 barley leaves; assay: caseinolytic (total) protease activity with casein-FITC in barley leaf extract; assay type: biochemical, Hordeum vulgare; settings: casein-FITC substrate; extract of week-4 barley leaves; pH 7.4
Method: as §1, §3

[10] = pH 7.4, 'No inhibition up to X' given as > X
[11] = pH 7.4, week-4 leaf extract, 'No inhibition up to X' given as > X, read-out: IC50, Z-FR-AMC cleavage
[12] = pH 7.4, week-4 leaf extract, 'No inhibition up to X' given as > X, read-out: IC50, Z-RR-AMC cleavage
[13] = pH 5.5, 'No inhibition up to X' given as > X
[14] = pH 5.5, week-4 leaf extract, read-out: IC50, Z-FR-AMC cleavage
[15] = pH 7.4, week-4 leaf extract, read-out: IC50, Z-FR-AMC cleavage
[16] = pH 5.5, week-4 leaf extract, read-out: IC50, Z-RR-AMC cleavage
[17] = pH 7.4, week-4 leaf extract, read-out: IC50, Z-RR-AMC cleavage

| IC50 [2, 11] [µM] | IC50 [3, 12] [µM] | IC50 [2, 14] [µM] | IC50 [2, 15] [µM] | concentration that totally blocks DCG-04 binding to the 43 kDa band [7] [µM] | IC50 [7] [µM] | IC50 [3, 16] [µM] | IC50 [3, 17] [µM] | SMILES | IC50 [1, 10] [µM] | further results |
| --- | --- | --- | --- | --- | --- | --- | --- | --- | --- | --- |
| > 1000 | > 1000 |  |  |  |  |  |  | CC(C)C[C@H](NC(=O)[C@@H](O)[C@H](N)Cc1ccccc1)C(=O)O [Bestatin] | 580 ± 120 | concentration required for complete inhibition of aminopeptidase [4]: 0.1 mM; concentration required for complete inhibition of aminopeptidase [5]: 0.1 mM |
|  |  | 0.12 ± 0.0143 | 0.0117 ± 0.0026 | > 6 | 0.29 ± 0.11 | 0.0906 ± 0.0122 | 0.0116 ± 0.0035 | O=C(NCc1ccccc1)C(Cc1ccccc1)NC(=O)C1OC1C(=O)NCCc1ccc(O)cc1 [CAA0225, (2S,3S)-oxirane-2,3-dicarboxylic acid 2-[((S)-1-benzylcarbamoyl-2-phenyl-ethyl)-amide] 3-{[2-(4-hydroxy-phenyl)-ethyl]-amide}] | > 200 | effect on DCG-04 binding to the 38 kDa band [6]: did not block binding; IC50 [1, 13]: > 200 µM; concentration up to which no activity on R-AMC cleavage was seen ([1]; pH not given): > 0.2 mM |
|  |  | 0.0123 ± 0.0028 | 0.0245 ± 0.0042 | 1 | 0.048 ± 0.0122 | 0.0062 ± 0.0017 | 0.0081 ± 0.0019 | CC(C)C[C@H](NC(=O)[C@H]1O[C@@H]1C(=O)O)C(=O)NCCCCNC(=N)N [E-64, trans-epoxysuccinyl-L-leucylamido-(4-guanidino) butane] |  | concentration that totally blocks DCG-04 binding to the 38 kDa band [6]: 1 µM; IC50 [6]: 0.0464 ± 0.0091 µM; inhibition of R-AMC cleavage ([1]; at 0.2–200 µM, pH 7.4): 20–25% inhibition at 0.2–200 µM; inhibition of R-AMC cleavage ([1]; at 1–200 µM, pH 5.5): 40–45% inhibition at 1–200 µM; IC50 [9]: 0.0644 ± 0.0031 µM |

More lines, now with the values behind:

| SMILES | IC50 [2, 11] [µM] | IC50 [3, 12] [µM] | IC50 [2, 14] [µM] | IC50 [2, 15] [µM] | concentration that totally blocks DCG-04 binding to the 43 kDa band [7] [µM] | IC50 [7] [µM] | IC50 [3, 16] [µM] | IC50 [3, 17] [µM] | IC50 [1, 10] [µM] | further results |
| --- | --- | --- | --- | --- | --- | --- | --- | --- | --- | --- |
| CC(C)CC(=O)N[C@H](C(=O)N[C@H](C(=O)N[C@@H](CC(C)C)[C@@H](O)CC(=O)N[C@@H](C)C(=O)N[C@@H](CC(C)C)[C@@H](O)CC(=O)O)C(C)C)C(C)C [Pepstatin A] (Isovaleryl-VV[Sta]A[Sta]-OH) | > 200 | > 200 |  |  |  |  |  |  | > 200 |  |
| O=S(=O)(F)Cc1ccccc1 [PMSF, Phenylmethylsulfonyl fluoride] | > 2000 |  |  |  |  |  |  |  | > 2000 | inhibition of Z-RR-AMC cleavage ([3]; at 2 mM, pH 7.4, week-4 leaf extract): 30% inhibition at 2 mM |
| c1cnc2c(c1)ccc1cccnc12 [1,10-Phenanthroline] |  |  |  |  |  |  |  |  |  | IC50 ([1]; pH not given): 560 ± 110 µM; IC50 ([2]; pH not given, week-4 leaf extract, read-out: IC50, Z-FR-AMC cleavage): 8900 ± 300 µM; IC50 ([3]; pH not given, week-4 leaf extract, read-out: IC50, Z-RR-AMC cleavage): 3100 ± 200 µM |
| CCOC(=O)[C@H]1O[C@@H]1C(=O)N[C@@H](CC(C)C)C(=O)N[C@@H](Cc1ccc(O)cc1)C(=O)NCCCCCC(=O)N[C@@H](CCCCNC(=O)CCCC[C@@H]1SC[C@@H]2NC(=O)N[C@@H]21)C(N)=O [DCG-04] |  |  |  |  |  |  |  |  |  | IC50 ([2]; preliminary experiments, barley leaf extracts, pH not stated, read-out: IC50, proteolytic activity with Z-FR-AMC): 1.8 ± 0.4 µM; IC50 ([3]; preliminary experiments, barley leaf extracts, pH not stated, read-out: IC50, proteolytic activity with Z-RR-AMC): 1.8 ± 0.4 µM |
| CCCNC(=O)[C@H]1O[C@@H]1C(=O)N[C@H](C(=O)N1CCC[C@H]1C(=O)O)[C@@H](C)CC [CA-074, (2S)-1-[(2S,3S)-3-methyl-2-[[(2S,3S)-3-(propylcarbamoyl)oxirane-2-carbonyl]amino]pentanoyl]pyrrolidine-2-carboxylic acid] |  |  | 11.3 ± 2.2 | 31 ± 5.6 | > 100 | 26.4 ± 2.8 | 22.7 ± 5.3 | 80.7 ± 12.4 | > 200 | IC50 [6]: 1.8 ± 0.6 µM; IC50 [1, 13]: > 200 µM; concentration up to which no activity on R-AMC cleavage was seen ([1]; pH not given): > 0.2 mM |
| CC(=O)N[C@@H](CC(C)C)C(=O)N[C@@H](CC(C)C)C(=O)N[C@H](C=O)CCCNC(=N)N [Leupeptin] |  | 610 ± 30 |  |  |  |  |  |  | > 400 | inhibition of Z-FR-AMC cleavage ([2]; at 0.4 mM, pH 7.4, week-4 leaf extract): 30% inhibition at 0.4 mM; inhibition of aleurain [8]: ~ 75% |
